Experimental data from ChEMBL document CHEMBL2434936, “Bicyclic and tricyclic heterocycle derivatives as histamine H3 receptor antagonists for the treatment of obesity” (Bioorg Med Chem Lett, 2013).
pIC50, pKi: −log10 of the molar value. The source made the active and inactive calls. No cut-off for these calls is given here.

Columns and labels:
Histamine H3 receptor [1] = biological target: Histamine H3 receptor (Mus musculus, UniProt P58406); assay: Displacement of [3H]N-alpha-methylhistamine from mouse histamine H3 receptor after 30 mins by scintillation counting analysis
Cytochrome P450 3A4 = Cytochrome P450 3A4 (Homo sapiens, UniProt P08684); assay: Inhibition of CYP3A4 in human liver microsomes; format: ADME, Microsome
hERG (KCNH2) = hERG (KCNH2) (Homo sapiens, UniProt Q12809); assay: Inhibition of human ERG channel at 5 ug/ml after 30 mins by rubidium efflux assay
Cytochrome P450 2C9 = Cytochrome P450 2C9 (Homo sapiens, UniProt P11712); assay: Inhibition of CYP2C9 in human liver microsomes; format: ADME, Microsome
Cytochrome P450 2D6 = Cytochrome P450 2D6 (Homo sapiens, UniProt P10635); assay: Inhibition of CYP2D6 in human liver microsomes; format: ADME, Microsome
Mus musculus [2] = assay: Ex vivo displacement of [3H]N-alpha-methylhistamine from histamine H3 receptor in mouse cortex at 10 mg/kg, po after 4 hrs by topcount scintillation counting analysis; format: functional
Histamine H3 receptor [3] = biological target: Histamine H3 receptor (Homo sapiens, UniProt Q9Y5N1); assay: Displacement of [3H]N-alpha-methylhistamine from human recombinant histamine H3 receptor expressed in HEK cells after 30 mins by scintillation counting analysis; format: cell-based, HEK293
Mus musculus [4] = assay: Ex vivo displacement of [3H]N-alpha-methylhistamine from histamine H3 receptor in mouse cortex at 3 mg/kg, po after 4 hrs by topcount scintillation counting analysis; format: functional
Mus musculus [5] = assay: Antiobesity activity in diet-induced obesity mouse model assessed as reduction in body weight at 3 mg/kg, po after 4 days relative to vehicle-treated control; format: functional; details: 96 h
Rattus norvegicus = assay: Toxicity in rat assessed as behavioral change at 100 to 300 mg/kg, po by Irwin test; format: organism-based; set-up: dose 100-300 mg/kg, route oral; details: in vivo
Mus musculus [6] = assay: Antiobesity activity in diet-induced obesity mouse model assessed as reduction in body weight at 1 mg/kg, po after 4 days relative to vehicle-treated control; format: functional; details: 96 h
Mus musculus [7] = assay: Antiobesity activity in diet-induced obesity mouse model assessed as reduction in body weight at 10 mg/kg, po after 4 days relative to vehicle-treated control; format: functional; details: 96 h
Mus musculus [8] = species on record: Mus musculus; assay: Ex vivo receptor occupancy of histamine H3 receptor in mouse brain after 72 hrs by time-course method; format: functional, organism-based
[9] = Plasma concentration in rat at 100 mg/kg, po after 4 hrs by Irwin test; format: ADME, organism-based; set-up: dose 100 mg/kg, route oral
[10] = Drug uptake in rat brain at 100 mg/kg, po after 4 hrs by Irwin test; format: ADME, organism-based; set-up: dose 100 mg/kg, route oral; details: read-out: Drug uptake
[11] = Plasma concentration in rat at 300 mg/kg, po after 4 hrs by Irwin test; format: ADME, organism-based; set-up: dose 300 mg/kg, route oral
[12] = Drug uptake in rat brain at 300 mg/kg, po after 4 hrs by Irwin test; format: ADME, organism-based; set-up: dose 300 mg/kg, route oral; details: read-out: Drug uptake
Mus musculus [13] = assay: Ex vivo displacement of [3H]N-alpha-methylhistamine from histamine H3 receptor in mouse cortex at 1 mg/kg, po after 4 hrs by topcount scintillation counting analysis; format: functional

Histamine H3 receptor (Homo sapiens, UniProt Q9Y5N1), sequence (Q9Y5N1 whole entry): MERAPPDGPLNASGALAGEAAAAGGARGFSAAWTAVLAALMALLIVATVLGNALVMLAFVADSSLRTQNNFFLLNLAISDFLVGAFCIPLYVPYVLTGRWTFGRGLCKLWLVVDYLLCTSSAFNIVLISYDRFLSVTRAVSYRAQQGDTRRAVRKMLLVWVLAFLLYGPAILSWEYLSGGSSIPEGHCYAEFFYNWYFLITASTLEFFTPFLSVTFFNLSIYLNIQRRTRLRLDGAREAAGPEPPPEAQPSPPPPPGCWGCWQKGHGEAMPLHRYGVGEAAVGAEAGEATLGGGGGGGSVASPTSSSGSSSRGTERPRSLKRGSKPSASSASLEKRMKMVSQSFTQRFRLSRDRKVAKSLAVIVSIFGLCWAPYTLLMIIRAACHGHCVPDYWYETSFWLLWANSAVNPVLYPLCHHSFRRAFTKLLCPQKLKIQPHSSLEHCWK
Cytochrome P450 2C9, sequence (P11712 whole entry): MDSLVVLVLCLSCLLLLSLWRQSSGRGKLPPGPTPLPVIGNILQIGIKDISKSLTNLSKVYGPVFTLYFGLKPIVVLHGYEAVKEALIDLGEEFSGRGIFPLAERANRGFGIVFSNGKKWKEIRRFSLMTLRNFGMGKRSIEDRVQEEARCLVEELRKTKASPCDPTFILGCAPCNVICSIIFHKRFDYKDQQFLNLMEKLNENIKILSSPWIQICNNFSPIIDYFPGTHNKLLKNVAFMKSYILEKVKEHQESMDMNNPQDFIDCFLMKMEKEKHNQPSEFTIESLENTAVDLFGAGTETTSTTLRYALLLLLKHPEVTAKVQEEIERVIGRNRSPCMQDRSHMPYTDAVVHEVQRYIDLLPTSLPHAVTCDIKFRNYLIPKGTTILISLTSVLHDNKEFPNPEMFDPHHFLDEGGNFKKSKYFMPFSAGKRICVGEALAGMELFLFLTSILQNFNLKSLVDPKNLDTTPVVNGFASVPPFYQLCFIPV
Cytochrome P450 3A4, sequence (P08684 whole entry): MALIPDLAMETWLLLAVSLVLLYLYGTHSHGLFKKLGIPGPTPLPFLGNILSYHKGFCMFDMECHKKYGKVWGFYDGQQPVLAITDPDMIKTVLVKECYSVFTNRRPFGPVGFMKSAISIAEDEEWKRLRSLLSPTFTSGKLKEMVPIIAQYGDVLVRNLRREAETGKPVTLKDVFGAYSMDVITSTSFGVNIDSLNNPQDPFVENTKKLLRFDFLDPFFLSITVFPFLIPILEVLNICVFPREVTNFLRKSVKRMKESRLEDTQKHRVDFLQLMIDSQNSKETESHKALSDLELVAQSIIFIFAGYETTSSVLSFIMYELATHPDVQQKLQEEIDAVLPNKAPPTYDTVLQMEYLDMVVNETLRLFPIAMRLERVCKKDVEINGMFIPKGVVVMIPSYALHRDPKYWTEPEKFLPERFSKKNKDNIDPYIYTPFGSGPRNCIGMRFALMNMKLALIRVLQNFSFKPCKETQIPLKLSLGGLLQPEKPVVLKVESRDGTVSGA
Histamine H3 receptor (Mus musculus, UniProt P58406), sequence (P58406 whole entry): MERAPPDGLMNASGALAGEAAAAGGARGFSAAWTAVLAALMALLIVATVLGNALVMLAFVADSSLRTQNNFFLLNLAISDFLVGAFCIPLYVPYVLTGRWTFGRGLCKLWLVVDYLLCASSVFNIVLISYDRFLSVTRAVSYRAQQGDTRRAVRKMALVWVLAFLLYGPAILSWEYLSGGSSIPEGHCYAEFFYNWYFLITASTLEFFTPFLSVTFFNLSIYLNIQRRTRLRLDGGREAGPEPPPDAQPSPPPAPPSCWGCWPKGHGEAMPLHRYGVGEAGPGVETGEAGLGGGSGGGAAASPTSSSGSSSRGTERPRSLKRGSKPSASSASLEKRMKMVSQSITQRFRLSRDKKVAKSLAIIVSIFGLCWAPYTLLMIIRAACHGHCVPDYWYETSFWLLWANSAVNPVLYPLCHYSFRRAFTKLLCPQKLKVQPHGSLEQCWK
Cytochrome P450 2D6, sequence (P10635 whole entry): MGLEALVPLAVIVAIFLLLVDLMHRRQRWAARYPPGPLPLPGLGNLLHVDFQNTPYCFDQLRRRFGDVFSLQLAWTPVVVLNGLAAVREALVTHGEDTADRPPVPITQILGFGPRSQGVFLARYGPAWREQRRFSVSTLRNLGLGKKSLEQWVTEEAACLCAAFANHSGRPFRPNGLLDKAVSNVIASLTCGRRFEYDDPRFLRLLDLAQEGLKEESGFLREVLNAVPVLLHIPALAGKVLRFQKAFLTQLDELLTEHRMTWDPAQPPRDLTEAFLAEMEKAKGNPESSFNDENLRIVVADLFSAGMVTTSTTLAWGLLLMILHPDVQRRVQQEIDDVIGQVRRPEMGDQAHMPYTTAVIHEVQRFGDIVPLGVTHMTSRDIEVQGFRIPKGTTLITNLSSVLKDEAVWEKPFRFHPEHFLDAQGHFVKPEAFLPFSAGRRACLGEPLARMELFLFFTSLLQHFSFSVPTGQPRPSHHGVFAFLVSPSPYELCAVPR
hERG (KCNH2), sequence (Q12809 whole entry): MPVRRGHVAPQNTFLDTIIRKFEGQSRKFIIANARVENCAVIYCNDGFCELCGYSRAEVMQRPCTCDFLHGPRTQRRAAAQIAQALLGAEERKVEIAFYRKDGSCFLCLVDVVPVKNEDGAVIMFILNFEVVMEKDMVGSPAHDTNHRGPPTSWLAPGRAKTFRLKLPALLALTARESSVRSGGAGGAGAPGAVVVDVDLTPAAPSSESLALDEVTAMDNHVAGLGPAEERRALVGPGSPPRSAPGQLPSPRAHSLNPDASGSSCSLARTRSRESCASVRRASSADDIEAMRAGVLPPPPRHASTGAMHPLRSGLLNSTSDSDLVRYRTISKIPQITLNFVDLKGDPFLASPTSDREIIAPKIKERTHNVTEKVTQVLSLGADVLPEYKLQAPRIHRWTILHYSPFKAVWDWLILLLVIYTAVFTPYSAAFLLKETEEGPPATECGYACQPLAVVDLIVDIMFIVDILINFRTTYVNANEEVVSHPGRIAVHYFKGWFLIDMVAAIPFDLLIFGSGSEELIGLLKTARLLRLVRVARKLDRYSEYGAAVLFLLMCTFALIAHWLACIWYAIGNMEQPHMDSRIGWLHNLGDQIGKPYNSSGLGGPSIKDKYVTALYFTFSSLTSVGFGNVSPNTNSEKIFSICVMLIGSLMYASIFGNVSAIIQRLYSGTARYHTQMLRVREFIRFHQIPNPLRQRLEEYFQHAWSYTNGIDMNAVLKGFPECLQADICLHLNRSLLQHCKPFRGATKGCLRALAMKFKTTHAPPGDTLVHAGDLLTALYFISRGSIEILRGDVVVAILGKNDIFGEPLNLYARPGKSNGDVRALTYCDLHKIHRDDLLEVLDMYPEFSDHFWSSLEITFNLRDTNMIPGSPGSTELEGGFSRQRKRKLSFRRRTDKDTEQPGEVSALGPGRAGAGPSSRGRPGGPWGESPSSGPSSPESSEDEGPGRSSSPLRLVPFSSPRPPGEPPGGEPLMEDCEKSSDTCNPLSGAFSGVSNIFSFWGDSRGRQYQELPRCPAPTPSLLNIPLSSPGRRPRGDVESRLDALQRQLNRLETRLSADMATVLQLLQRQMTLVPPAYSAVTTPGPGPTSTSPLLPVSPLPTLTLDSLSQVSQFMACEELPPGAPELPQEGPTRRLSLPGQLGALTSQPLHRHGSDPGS

| SMILES | pKi (Histamine H3 receptor [1]) | pIC50 (Cytochrome P450 3A4) | pIC50 (Cytochrome P450 2C9) | pIC50 (Cytochrome P450 2D6) | pKi (Histamine H3 receptor [3]) | Activity (Mus musculus [8]) | concentration at 4 h [9] [µg/mL] | concentration at 4 h [10] [ng/g] | concentration at 4 h [11] [µg/mL] | concentration at 4 h [12] [ng/g] | inhibition at 0.5 h, 5 ug/ml (hERG (KCNH2)) [%] | inhibition in vivo at 10 mg/kg (Mus musculus [2]) [%] | inhibition in vivo at 3 mg/kg (Mus musculus [4]) [%] | inhibition in vivo at 3 mg/kg (Mus musculus [5]) [%] | Activity (Rattus norvegicus) | inhibition in vivo at 1 mg/kg (Mus musculus [6]) [%] | inhibition in vivo at 10 mg/kg (Mus musculus [7]) [%] | inhibition in vivo at 1 mg/kg (Mus musculus [13]) [%] |
| --- | --- | --- | --- | --- | --- | --- | --- | --- | --- | --- | --- | --- | --- | --- | --- | --- | --- | --- |
| Nc1cc(CN2CCC(F)(C(=O)N3CCC(N4Cc5ccccc5Cc5ccccc54)CC3)CC2)ccn1 | 7.36 | 4.74 | 5.40 | < 4.52 | 8.40 | – | – | – | – | – | 50 | – | – | – | – | – | – | – |
| Nc1cc(CN2CCC(F)(C(=O)N3CCC(N4Cc5ccc(F)cc5C4)CC3)CC2)ccn1 | 8.15 | < 4.52 | < 4.52 | < 4.52 | 8.70 | – | – | – | – | – | 4 | – | 94 | – | – | – | – | – |
| Nc1cc(CN2CCC(F)(C(=O)N3CCC(N4CCCc5ccccc5C4)CC3)CC2)ccn1 | 6.94 | < 4.52 | < 4.52 | < 4.52 | 7.44 | – | – | – | – | – | 25 | 78 | – | – | – | – | – | – |
| Nc1cc(CN2CCC(F)(C(=O)N3CCC(N4Cc5ccccc5C4)CC3)CC2)ccn1 | 8.40 | < 4.52 | < 4.52 | < 4.52 | 8.70 | – | – | – | – | – | -2 | – | – | – | – | – | – | 81 |
| Cc1nnc2n1-c1sccc1C(=O)N(C1CCN(C(=O)C3(F)CCN(Cc4ccnc(N)c4)CC3)CC1)C2 | 7.15 | < 4.52 | < 4.52 | < 4.52 | 7.57 | – | – | – | – | – | 6 | 0 | – | – | – | – | – | – |
| Cn1c2c(c3ccccc31)CCN(C1CCN(C(=O)C3(F)CCN(Cc4ccnc(N)c4)CC3)CC1)CC2 | 7.34 | < 4.52 | < 4.52 | < 4.52 | 7.82 | – | – | – | – | – | 21 | – | – | – | – | – | – | – |
| Nc1cc(CN2CCC(F)(C(=O)N3CCC(N4CCc5ccccc5C4)CC3)CC2)ccn1 | 8.40 | < 4.52 | < 4.52 | < 4.52 | 8.70 | – | – | – | – | – | 2 | – | – | – | – | – | – | 73 |
| Nc1cc(CN2CCC(F)(C(=O)N3CCC(N4Cc5ccccc5-c5ccccc5C4)CC3)CC2)ccn1 | 8.40 | 4.74 | < 4.52 | 6.52 | 8.70 | – | – | – | – | – | 27 | – | 91 | 38 | – | 28 | 65 | – |
| Nc1cc(CN2CCC(F)(C(=O)N3CCC(N4c5ccccc5Sc5ccccc54)CC3)CC2)ccn1 | 8.15 | < 4.52 | < 4.52 | < 4.52 | 8.15 | – | – | – | – | – | 40 | 84 | – | – | – | – | – | – |
| Nc1cc(CN2CCC(F)(C(=O)N3CCC(N4c5ccccc5Sc5cccnc54)CC3)CC2)ccn1 | 7.59 | – | – | – | 8.15 | – | – | – | – | – | 54 | 89 | – | – | – | – | – | – |
| Nc1cc(CN2CCC(F)(C(=O)N3CCC(N4c5ccccc5Sc5ccc(C(F)(F)F)cc54)CC3)CC2)ccn1 | 7.29 | – | – | – | 7.96 | – | – | – | – | – | 79 | 25 | – | – | – | – | – | – |
| Nc1cc(CN2CCC(F)(C(=O)N3CCC(N4Cc5cccnc5C4)CC3)CC2)ccn1 | 7.82 | – | – | – | 8.15 | – | – | – | – | – | – | – | – | – | – | – | – | – |

Second part, led by results:

| pKi (Histamine H3 receptor [1]) | pIC50 (Cytochrome P450 3A4) | pIC50 (Cytochrome P450 2C9) | pIC50 (Cytochrome P450 2D6) | pKi (Histamine H3 receptor [3]) | Activity (Mus musculus [8]) | concentration at 4 h [9] [µg/mL] | concentration at 4 h [10] [ng/g] | concentration at 4 h [11] [µg/mL] | concentration at 4 h [12] [ng/g] | SMILES | inhibition at 0.5 h, 5 ug/ml (hERG (KCNH2)) [%] | inhibition in vivo at 10 mg/kg (Mus musculus [2]) [%] | inhibition in vivo at 3 mg/kg (Mus musculus [4]) [%] | inhibition in vivo at 3 mg/kg (Mus musculus [5]) [%] | Activity (Rattus norvegicus) | inhibition in vivo at 1 mg/kg (Mus musculus [6]) [%] | inhibition in vivo at 10 mg/kg (Mus musculus [7]) [%] | inhibition in vivo at 1 mg/kg (Mus musculus [13]) [%] |
| --- | --- | --- | --- | --- | --- | --- | --- | --- | --- | --- | --- | --- | --- | --- | --- | --- | --- | --- |
| 8.40 | < 4.52 | < 4.52 | < 4.52 | 8.70 | – | – | – | – | – | COc1ccc2c(c1)CN(C1CCN(C(=O)C3(F)CCN(Cc4ccnc(N)c4)CC3)CC1)CCC2 | 7 | 77 | – | – | – | – | – | – |
| 8.52 | < 4.52 | < 4.52 | < 4.52 | 9.00 | Active | 0.836 | 13700 | 4.94 | 47100 | Nc1cc(CN2CCC(F)(C(=O)N3CCC(N4CCc5ccccc5CC4)CC3)CC2)ccn1 | -2 | 98 | – | 52 | Non-toxic | 38 | 89 | – |
| 8.70 | < 4.52 | < 4.52 | < 4.52 | 8.70 | – | – | – | – | – | N#Cc1ccc2c(c1)CN(C1CCN(C(=O)C3(F)CCN(Cc4ccnc(N)c4)CC3)CC1)CC2 | 11 | – | – | – | – | – | – | 52 |
| 8.52 | < 4.52 | < 4.52 | < 4.52 | 9.00 | – | – | – | – | – | Nc1cc(CN2CCC(F)(C(=O)N3CCC(N4CCNc5ccccc5C4)CC3)CC2)ccn1 | 12 | – | 22 | – | – | – | – | – |
| 8.70 | < 4.52 | < 4.52 | < 4.52 | 9.00 | – | – | – | – | – | Cc1nnc2n1-c1sccc1CN(C1CCN(C(=O)C3(F)CCN(Cc4ccnc(N)c4)CC3)CC1)C2 | 9 | 14 | – | – | – | – | – | – |
| 8.52 | < 4.52 | < 4.52 | < 4.52 | 9.00 | – | – | – | – | – | COc1ccc2c(c1)CCCN(C1CCN(C(=O)C3(F)CCN(Cc4ccnc(N)c4)CC3)CC1)C2 | 12 | 74 | – | – | – | – | – | – |
